These results are taken from PubChem BioAssay (NCI).

Holding throughout (assay): inhibition of tumour cell growth, NCI panel, 48 h
The subject of assay [1] is SNB-19 CNS.
Assay [2] relates to IGROV1 ovarian.
The test system of assay [3] is T-47D breast.
The test system of assay [4] is A498 renal.
The test system of assay [5] is MDA-MB-231 breast.
Assay [6] concerns OVCAR-5 ovarian.
In assay [7] the test system is MDA-MB-435.

Where “and” joins values, the source holds several entries; their conditions need not be identical. Identical values can stand only once.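 The compound was tested at five concentrations on cells cultured in 96-well plates, with a 48-hour exposure period. GI50 = concentration required for 50% inhibition of growth. At the TGI there is no net growth.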

For the compound `CCCCN(CCCC)c1ccc(C(=N)c2ccc(N(CCCC)CCCC)cc2)cc1`, the GI50 in assay [1] is 0.468 µM; in assay [2], 1.04 µM; in assay [3], 0.353 µM; in assay [4], 1.24 µM; in assay [5], 0.759 µM; in assay [6] it was 0.88 µM. Also, the GI50 in assay [7] was 0.642 µM. In addition, the TGI in assay [1] is 1.91 µM; in assay [2] it was 2.66 µM; in assay [3], 1.39 µM; in assay [4] it was 2.56 µM; in assay [5] it was 2.06 µM; in assay [6], 2.31 µM. Moreover, the TGI in assay [7] amounted to 2.21 µM.
`C=C1C(=O)OC2C1C(OC(=O)/C(C)=C/C)CC(O)(CCl)C1C(O)C3OC3(C)C21O` (centres undefined): the TGI in assay [1], in assay [2], in assay [3], in assay [4], in assay [5] and in assay [6] was greater than 50 µM each time. Moreover, the TGI in assay [7] was greater than 50 µM.
For `Nc1[nH]nc2nc(-c3cccs3)cc(C(F)(F)F)c12`, the GI50 in assay [1] was greater than 25 µM; in assay [2], greater than 25 µM; in assay [3], greater than 25 µM; in assay [4], greater than 23.7 µM; in assay [5], greater than 25 µM; in assay [6], greater than 25 µM. Besides, the GI50 in assay [7] is greater than 25 µM. Besides, the TGI in assay [1], in assay [2], in assay [3], in assay [4], in assay [5] and in assay [6] was greater than 25 µM throughout. In assay [7], this compound registered a TGI greater than 25 µM.
Turning to `O=C(Nc1ccc(Cl)cc1)Nc1ccc(Nc2nncc3ccccc23)cc1`, the GI50 in assay [1] is 3.67 µM; in assay [2] it was 2.52 µM; in assay [3], 1.03 µM; in assay [4], 3.79 µM; in assay [5], 3.4 µM; in assay [6] it was 4.15 µM. In addition, in assay [7], the GI50 is 2.14 µM. For the same compound, the TGI in assay [1] turned out to be 19 µM; in assay [2], 30.7 µM; in assay [3], 5.35 µM; in assay [4], 18.8 µM; in assay [5], 15.9 µM; in assay [6] it was 34.3 µM. This compound returned a TGI in assay [7] of 9.42 µM.
As for `CC1=C(CO)C(=O)O[C@@H]([C@@H](C)[C@H]2CC[C@H]3[C@@H]4C[C@@H](O)[C@@]5(O)CC=CC(=O)[C@]5(C)[C@H]4CC[C@]23C)C1`, the TGI was greater than 100 µM in assay [1]; 31.6 µM in assay [2]; greater than 100 µM in assay [3]; 39.5 µM in assay [4]; greater than 100 µM in assay [5]; greater than 100 µM in assay [6]. In assay [7], the TGI was greater than 100 µM.
Regarding `C=C1C(=O)OC2/C=C(/C)C(OC(C)=O)CC(O)/C(C)=C\C(OC(=O)/C(C)=C\C)C12` (centres undefined), the TGI in assay [1], in assay [2], in assay [3], in assay [4], in assay [5] and in assay [6] was greater than 100 µM each time. This compound displayed a TGI in assay [7] greater than 100 µM.
Turning to `COc1ccc(C2SC(C)C(=O)N2NC(=O)C(O)c2ccccc2)cc1OC` (centres undefined), the GI50 in assay [1], in assay [2], in assay [3], in assay [4], in assay [5] and in assay [6] was greater than 100 µM each time. Moreover, the GI50 in assay [7] was greater than 100 µM. Also, the TGI in assay [1], in assay [2], in assay [3], in assay [4], in assay [5] and in assay [6] was greater than 100 µM in each case. Moreover, the TGI in assay [7] is greater than 100 µM.
As to `CCOc1cc2ncc(C#N)c(Nc3ccc(OCc4ccccn4)c(Cl)c3)c2cc1NC(=O)/C=C/CN(C)C`, the GI50 in assay [1] is 2.52 µM; in assay [2] it was 0.121 µM and 0.0191 µM; in assay [4], 0.124 µM and 0.153 µM; in assay [5], 1.35 µM and 1.48 µM; in assay [6], 0.416 µM and 0.351 µM; in assay [7] it was 0.902 µM and 0.77 µM. The TGI in assay [1] is 22.9 µM and > 10 µM; in assay [2] it was 5.7 µM and 1.84 µM; in assay [3], 29.7 µM and > 2.61 µM; in assay [5], 2.99 µM and 5.63 µM; in assay [6], 7.82 µM and > 10 µM; in assay [7], 2.52 µM and 5.37 µM.
In the case of `CC1(C)[C@@H](OC(N)=O)[C@H]2O[C@H]2[C@]2(CO)[C@H]3CC[C@]4(C)[C@@H](c5ccc(=O)oc5)[C@@H](Cl)C[C@]4(O)C3=CC[C@@H]12`, the GI50 in assay [1] was 0.0161 µM; in assay [2], 0.0116 µM; in assay [3] it was 0.0076 µM; in assay [4], 0.0144 µM; in assay [5], 0.0283 µM; in assay [6], 0.00821 µM. In addition, the GI50 in assay [7] was 0.0101 µM. The TGI in assay [1] is 0.0509 µM; in assay [2], 0.0938 µM; in assay [3], 0.0333 µM; in assay [4], 0.0748 µM; in assay [5], 0.103 µM; in assay [6], 0.0342 µM. For the same compound, the TGI in assay [7] was 0.0386 µM.
Regarding `Nc1nc(Nc2ccc(C3CCC(N4CCOCC4)CC3)cc2)nn1-c1ccccn1` (centres undefined), the GI50 in assay [1] is 7.38 µM; in assay [2], 3.57 µM; in assay [3] it was greater than 31.5 µM; in assay [4], 5 µM; in assay [5], 5.34 µM; in assay [6], 4.17 µM. In assay [7], the GI50 was 3.57 µM. The TGI in assay [1] was greater than 100 µM; in assay [2], greater than 100 µM; in assay [3], greater than 100 µM; in assay [4], 20.1 µM; in assay [5] it was greater than 100 µM; in assay [6], greater than 100 µM. The TGI in assay [7] is greater than 100 µM.
Consider `C1CN(SSN2CCOCC2)CCO1`, for which the GI50 in assay [1] was greater than 100 µM; in assay [2], 70.7 µM; in assay [3], 45 µM; in assay [4], greater than 100 µM; in assay [5], 92.8 µM; in assay [6] it was 39 µM. In addition, the GI50 in assay [7] is 33.8 µM. In addition, the TGI in assay [1], in assay [2], in assay [3], in assay [4], in assay [5] and in assay [6] was greater than 100 µM each time. The compound also had a TGI in assay [7] greater than 100 µM.
For the compound `NC(=S)N/N=C/c1ncccc1N`, the GI50 is 1.78 µM in assay [1]; 0.807 µM in assay [2]; 1.92 µM in assay [3]; 3.79 µM in assay [5]; 5.98 µM in assay [6]; 5.17 µM in assay [7]. Besides, the TGI in assay [1] was greater than 84.9 µM; in assay [2], greater than 100 µM; in assay [3], 23.2 µM and > 10 µM; in assay [4], greater than 73.1 µM; in assay [5], greater than 100 µM; in assay [6], greater than 100 µM. In assay [7], this compound yielded a TGI greater than 100 µM.
